From publication PMC3093256, “Synthesis of 1-Substituted Carbazolyl-1,2,3,4-tetrahydro- and Carbazolyl-3,4-dihydro-β-carboline Analogs as Potential Antitumor Agents” (Marine Drugs, 2011)
Values after ≈ are worked out from the molar mass of the structure shown.

Columns and labels:
[1] = test system: DLD (human colon adenocarcinoma); test: Cytotoxicity assay, DLD cells; format: cell-based; details: for IC50: Homo sapiens, 72 h, 3 days incubation, by interpolation
Description: (§1) The cytotoxic activities of compounds against KB (human mouth epidermoid carcinoma), DLD (human colon adenocarcinoma), NCI-H661 (human lung large cell carcinoma), Hepa (human hepatoma), and HepG2/A2 (human hepatoblastoma) cells were assayed by the […] assay as previously described. The cells for assay were cultured in RPMI-1640 medium supplemented with […] in an incubator at 37 °C. The cytotoxicity assay depends on the binding of methylene blue to fixed monolayers of cells at pH 8.5, washing the monolayer, and releasing the dye by lowering the pH value. Samples and control standard drugs were prepared at a concentration of 1, 10, 40, and 100 μg/mL. After seeding 2880 cells/well in a 96-well microplate for 3 h, 20 μL of sample or standard agent was placed in each well and incubated at 37 °C for 3 days. After removing the medium from the microplates, the cells were fixed with 10% formaldehyde in 0.9% saline for 30 min, then dyed with 1% (w/v) methylene blue in 0.01 M borate-buffer (100 μL/well) for 30 min. The 96-well plate was dipped into a 0.01 M borate-buffer solution four times in order to remove the dye. Then, 100 μL/well of EtOH-0.1 M HCl (1:1) was added as a dye eluting solvent, and the absorbance was measured on a microtiter plate reader (Dynatech, MR 7000) at a wavelength of 650 nm. […] Doxorubicin was used as a standard compound.

[2] = test system: KB (human mouth epidermoid carcinoma); test: Cytotoxicity assay, KB cells; format: cell-based; details: 72 h, 3 days incubation, by interpolation
Description: as §1

[3] = test system: NCI-H661 (human lung large cell carcinoma); test: Cytotoxicity assay, NCI-H661 cells; format: cell-based; details: 72 h, 3 days incubation, by interpolation
Description: as §1

[4] = target: T1, human DNA topoisomerase II (Homo sapiens, UniProt P11388); test: Relaxation assay of topoisomerase II (supercoiled pBR322); format: biochemical; details: for IC50: five concentrations 5, 10, 25, 50 and 100 μg/mL, read-out: Inhibition of DNA topoisomerase II IC50 (converted); for inhibition of DNA topoisomerase II (in words): compared with etoposide; for fold more potent against topoisomerase II compared to etoposide: relative to etoposide
T1 construct: purchased TopoGen
Description: (§2) Topoisomerases I and II (topo I and II) assays were measured by assessing relaxation of supercoiled pBR322 plasmid DNA according to [24]. […] In summary, topo I (TopoGen) was mixed with the test sample and 10° volume of assay buffer (100 mM Tris-HCl, 10 mM EDTA, 1.5 M NACl, 1.0% BSA, […], and 50% glycerol), and then supercoiled DNA (pBR322) was added. In topo II assay, the mixture contained test sample and buffer including 50 mM Tris-HCl, 120 mM KCl, 10 mM MgCl2, 0.5 mM ATP, 0.5 mM dithiothreitol, 2 μg BSA, pBR322 plasmid DNA (0.25 μg), and 3U of topo II (TopoGen) in final volume of 20 μL. After incubation of topo I or topo II mixture for 30 min at 37 °C, 2 λ 10% SDS and 2.5 λ proteinase K were added for 1 h. The reaction mixtures were electrophoresed on a 2% agarose gel (50 V, 20 min; 100 V, 30 min; 110 V, 30 min) and stained with ethidium bromide. Finally, by a densitometer of ImageMaster® (Fujifilm thermal imaging system, FTI-500), the gels were directly scanned and the area representing supercoiled DNA was calculated.

[5] = target: T2, human DNA topoisomerase I (Homo sapiens, UniProt P11387); test: Relaxation assay of topoisomerase I (supercoiled pBR322); format: biochemical; details: five concentrations 5, 10, 25, 50 and 100 μg/mL; read-out: Inhibition of DNA topoisomerase I IC50 (converted)
T2 construct: purchased TopoGen
T2 sequence (P11387 1-765): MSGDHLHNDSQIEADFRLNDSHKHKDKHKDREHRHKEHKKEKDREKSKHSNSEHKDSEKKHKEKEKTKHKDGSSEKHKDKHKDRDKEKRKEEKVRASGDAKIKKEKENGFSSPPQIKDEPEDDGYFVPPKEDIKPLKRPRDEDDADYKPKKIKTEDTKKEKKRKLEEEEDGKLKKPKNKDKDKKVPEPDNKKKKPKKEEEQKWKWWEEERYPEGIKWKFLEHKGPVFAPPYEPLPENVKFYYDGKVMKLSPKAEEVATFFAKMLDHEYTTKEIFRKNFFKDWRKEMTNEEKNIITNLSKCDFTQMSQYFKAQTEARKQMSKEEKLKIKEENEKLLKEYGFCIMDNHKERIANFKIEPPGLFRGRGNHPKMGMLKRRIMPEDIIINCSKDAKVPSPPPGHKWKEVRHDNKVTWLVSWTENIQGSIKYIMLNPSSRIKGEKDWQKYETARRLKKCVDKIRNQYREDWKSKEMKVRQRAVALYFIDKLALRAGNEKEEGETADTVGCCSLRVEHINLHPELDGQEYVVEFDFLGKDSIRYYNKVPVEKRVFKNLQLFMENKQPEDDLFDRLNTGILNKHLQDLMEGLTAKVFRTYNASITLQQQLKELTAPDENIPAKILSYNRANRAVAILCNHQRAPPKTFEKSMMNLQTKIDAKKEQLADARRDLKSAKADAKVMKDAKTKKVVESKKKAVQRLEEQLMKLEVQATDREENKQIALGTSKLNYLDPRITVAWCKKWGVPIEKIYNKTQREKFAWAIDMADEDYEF
Description: as §2

[6] = test system: HepG2/A2 (human hepatoma); test: Cytotoxicity assay, HepG2/A2 cells; format: cell-based; details: for IC50: Homo sapiens, 72 h, HepG2/A2 cells, 3 days incubation, by interpolation
Description: as §1

[7] = test system: Hepa (human hepatoma); test: Cytotoxicity assay, Hepa cells; format: cell-based; details: 72 h, 3 days incubation, by interpolation
Description: as §1

T1 sequence (P11388 whole entry): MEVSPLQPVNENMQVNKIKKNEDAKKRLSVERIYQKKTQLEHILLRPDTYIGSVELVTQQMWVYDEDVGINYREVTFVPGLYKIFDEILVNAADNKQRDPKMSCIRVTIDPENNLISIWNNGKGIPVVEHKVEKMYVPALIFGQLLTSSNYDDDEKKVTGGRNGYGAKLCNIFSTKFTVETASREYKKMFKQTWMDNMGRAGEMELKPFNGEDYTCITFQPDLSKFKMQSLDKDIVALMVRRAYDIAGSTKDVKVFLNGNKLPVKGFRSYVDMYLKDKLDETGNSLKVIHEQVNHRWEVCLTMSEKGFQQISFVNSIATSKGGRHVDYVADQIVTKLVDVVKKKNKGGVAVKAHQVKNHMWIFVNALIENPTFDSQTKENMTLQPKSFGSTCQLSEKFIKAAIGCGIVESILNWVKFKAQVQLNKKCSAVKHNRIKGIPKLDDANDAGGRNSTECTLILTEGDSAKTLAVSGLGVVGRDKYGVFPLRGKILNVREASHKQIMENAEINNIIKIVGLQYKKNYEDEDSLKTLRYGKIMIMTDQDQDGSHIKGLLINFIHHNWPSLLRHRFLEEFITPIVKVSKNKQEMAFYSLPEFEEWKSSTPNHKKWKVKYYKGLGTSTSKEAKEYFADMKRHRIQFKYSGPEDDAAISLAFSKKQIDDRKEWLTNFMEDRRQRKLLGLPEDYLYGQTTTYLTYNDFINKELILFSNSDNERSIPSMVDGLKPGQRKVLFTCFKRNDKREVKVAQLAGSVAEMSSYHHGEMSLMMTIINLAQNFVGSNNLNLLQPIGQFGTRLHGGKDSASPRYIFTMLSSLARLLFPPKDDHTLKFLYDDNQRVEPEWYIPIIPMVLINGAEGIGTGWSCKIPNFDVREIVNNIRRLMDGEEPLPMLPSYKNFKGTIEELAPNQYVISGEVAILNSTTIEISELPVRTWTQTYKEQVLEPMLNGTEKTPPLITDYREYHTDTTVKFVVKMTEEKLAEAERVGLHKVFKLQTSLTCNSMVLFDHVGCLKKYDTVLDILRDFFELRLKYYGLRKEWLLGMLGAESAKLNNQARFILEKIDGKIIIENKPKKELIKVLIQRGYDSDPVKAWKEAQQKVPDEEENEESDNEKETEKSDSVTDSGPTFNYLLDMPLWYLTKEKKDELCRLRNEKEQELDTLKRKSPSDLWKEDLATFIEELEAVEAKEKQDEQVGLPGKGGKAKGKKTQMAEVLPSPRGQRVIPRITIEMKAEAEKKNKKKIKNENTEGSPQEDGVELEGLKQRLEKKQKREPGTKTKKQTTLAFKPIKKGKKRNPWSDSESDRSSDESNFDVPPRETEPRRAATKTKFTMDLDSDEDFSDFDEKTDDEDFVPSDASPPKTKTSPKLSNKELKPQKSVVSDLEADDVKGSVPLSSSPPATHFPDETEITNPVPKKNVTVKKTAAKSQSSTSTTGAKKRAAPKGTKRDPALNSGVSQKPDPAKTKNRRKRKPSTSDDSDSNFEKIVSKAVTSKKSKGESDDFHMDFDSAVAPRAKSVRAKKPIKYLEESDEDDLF

| SMILES | IC50 [1] [µg/mL] | melting point [°C] | IC50 [2] [µg/mL] | IC50 [3] [µg/mL] | IC50 [4] [µM] | IC50 [5] [µM] | IC50 [6] [µg/mL] | inhibition of DNA topoisomerase II (in words) [4] | fold more potent against topoisomerase II compared to etoposide [4] | IC50 [7] [µg/mL] | cytotoxicity against HepG2/A2 (in words) ([6]; HepG2/A2 tumor cells) | activity in DLD assay (in words) [1] |
| --- | --- | --- | --- | --- | --- | --- | --- | --- | --- | --- | --- | --- |
| CCn1c2ccccc2c2cc(C3NCCc4c3[nH]c3ccccc43)ccc21 (stereo not drawn) [Compound 1, 1-(9′-Ethyl-3′-carbazolyl)-1,2,3,4-tetrahydro-β-carboline] | 1.69 (≈ 4.62 µM) | 240 to 242 | 3.47 (≈ 9.49 µM) | 1.82 (≈ 4.98 µM) | 26 | > 274 | – | – | – | – | – | – |
| CCn1c2ccccc2c2cc(C3=NCCc4c3[nH]c3ccccc43)ccc21 [Compound 2, 1-(9′-Ethyl-3′-carbazolyl)-3,4-dihydro-β-carboline] | 1.09 (≈ 3 µM) | 175 to 177 | 0.71 (≈ 1.95 µM) | 0.84 (≈ 2.31 µM) | 23.4 | > 275 | 0.6 (≈ 1.65 µM) | – | – | – | – | – |
| CCCn1c2ccccc2c2cc(C3NCCc4c3[nH]c3ccccc43)ccc21 (stereo not drawn) [Compound 3, 1-(9′-Propyl-3′-carbazolyl)-1,2,3,4-tetrahydro-β-carboline] | 1.58 (≈ 4.16 µM) | 110 to 112 | 1.84 (≈ 4.85 µM) | 2.14 (≈ 5.64 µM) | 4.22 | 124 | 6.1 (≈ 16.1 µM) | most potent | 10- to 15 fold | – | – | – |
| CCCn1c2ccccc2c2cc(C3=NCCc4c3[nH]c3ccccc43)ccc21 [Compound 4, 1-(9′-Propyl-3′-carbazolyl)-3,4-dihydro-β-carboline] | 2.16 (≈ 5.72 µM) | 126 to 128 | 2.72 (≈ 7.21 µM) | 5.02 (≈ 13.3 µM) | 5.56 | > 265 | 5.1 (≈ 13.5 µM) | most potent | 10- to 15 fold | – | – | – |
| CCC(C)n1c2ccccc2c2cc(C3NCCc4c3[nH]c3ccccc43)ccc21 (stereo not drawn) [Compound 5, 1-(9′-[1″-Methyl]propyl-3′-carbazolyl)-1,2,3,4-tetrahydro-β-carboline] | – | 127 to 130 | 3 (≈ 7.62 µM) | – | 25.4 | > 254 | – | – | – | 2.25 (≈ 5.72 µM) | – | – |
| CCC(C)n1c2ccccc2c2cc(C3=NCCc4c3[nH]c3ccccc43)ccc21 (stereo not drawn) [Compound 6, 1-(9′-[1″-Methyl]propyl-3′-carbazolyl)-3,4-dihydro-β-carboline] | – | 151 to 154 | 0.48 (≈ 1.23 µM) | – | 66.4 | > 255 | – | – | – | 2.67 (≈ 6.82 µM) | – | – |
| CCCCCn1c2ccccc2c2cc(C3NCCc4c3[nH]c3ccccc43)ccc21 (stereo not drawn) [Compound 7, 1-(9′-Pentyl-3′-carbazolyl)-1,2,3,4-tetrahydro-β-carboline] | 3.75 (≈ 9.2 µM) | 129 to 130 | 3.45 (≈ 8.46 µM) | 0.22 (≈ 0.54 µM) | 6.62 | 218 | 20.5 (≈ 50.3 µM) | most potent | – | – | – | – |
| CCCCCn1c2ccccc2c2cc(C3=NCCc4c3[nH]c3ccccc43)ccc21 [Compound 8, 1-(9′-Pentyl-3′-carbazolyl)-3,4-dihydro-β-carboline] | 1.29 (≈ 3.18 µM) | 97 to 98 | > 20 | 3.39 (≈ 8.36 µM) | 54.2 | 143 | 5.4 (≈ 13.3 µM) | – | – | – | active | – |
| CC(C)CCn1c2ccccc2c2cc(C3NCCc4c3[nH]c3ccccc43)ccc21 (stereo not drawn) [Compound 9, 1-(9′-[3″-Methylbutyl]-3′-carbazolyl)-1,2,3,4-tetrahydro-β-carboline] | – | 99 to 101 | 2.96 (≈ 7.26 µM) | – | 6.87 | 236 | – | most potent | 10- to 15 fold | 1.12 (≈ 2.75 µM) | – | – |
| CC(C)CCn1c2ccccc2c2cc(C3=NCCc4c3[nH]c3ccccc43)ccc21 [Compound 10, 1-(9′-[3″-Methylbutyl]-3′-carbazolyl)-3,4-dihydro-β-carboline] | – | 135 to 137 | 3.13 (≈ 7.72 µM) | – | 6.66 | 165 | – | most potent | 10- to 15 fold | 4.4 (≈ 10.8 µM) | – | – |
| CCCCCCCCn1c2ccccc2c2cc(C3NCCc4c3[nH]c3ccccc43)ccc21 (stereo not drawn) [Compound 11, 1-(9′-Octyl-3′-carbazolyl)-1,2,3,4-tetrahydro-β-carboline] | 1.57 (≈ 3.49 µM) | 87 to 89 | > 20 | > 20 | 66.7 | > 222 | 20.7 (≈ 46 µM) | – | – | – | – | active |
| CCCCCCCCn1c2ccccc2c2cc(C3=NCCc4c3[nH]c3ccccc43)ccc21 [Compound 12, 1-(9′-Octyl-3′-carbazolyl)-3,4-dihydro-β-carboline] | 2.55 (≈ 5.7 µM) | 91 to 92 | 9.13 (≈ 20.4 µM) | 5.28 (≈ 11.8 µM) | 64.8 | > 223 | 30.1 (≈ 67.2 µM) | – | – | – | – | – |
| CCCCCCCCCCn1c2ccccc2c2cc(C3NCCc4c3[nH]c3ccccc43)ccc21 (stereo not drawn) [Compound 13, 1-(9′-Decyl-3′-carbazolyl)-1,2,3,4-tetrahydro-β-carboline] | 10.4 (≈ 21.8 µM) | 102 to 104 | 6.36 (≈ 13.3 µM) | 13.9 (≈ 29.1 µM) | 58.6 | > 209 | > 60 | – | – | – | – | – |
| CCCCCCCCCCn1c2ccccc2c2cc(C3=NCCc4c3[nH]c3ccccc43)ccc21 [Compound 14, 1-(9′-Decyl-3′-carbazolyl)-3,4-dihydro-β-carboline] | > 20 | 78 to 80 | > 20 | > 20 | 39.9 | > 210 | > 60 | – | – | > 20 | – | – |
| CCCCCCCCCCCCCCCCn1c2ccccc2c2cc(C3NCCc4c3[nH]c3ccccc43)ccc21 (stereo not drawn) [Compound 15, 1-(9′-Hexadecyl-3′-carbazolyl)-1,2,3,4-tetrahydro-β-carboline] | > 20 | 111 to 113 | > 20 | > 20 | > 178 | > 178 | > 60 | – | – | > 20 | – | – |
| CCCCCCCCCCCCCCCCCCCCn1c2ccccc2c2cc(C3NCCc4c3[nH]c3ccccc43)ccc21 (stereo not drawn) [Compound 17, 1-(9′-Eicosyl-3′-carbazolyl)-1,2,3,4-tetrahydro-β-carboline] | > 20 | – | > 20 | > 20 | > 162 | > 162 | > 60 | – | – | > 20 | – | – |
